What all share (test): relative viability (nuclei count vs DMSO), 5 days (fraction); higher = more cells survive
Compound in assay [1]: Cc1cc([C@@H](C)Nc2ccccc2C(=O)O)c2nc(N3CCOCC3)cc(=O)n2c1 [AZD6482] + C[C@]1(O)C[C@@H](c2nc(-c3ccc4ccc(-c5ccccc5)nc4c3)c3c(N)nccn32)C1 [Linsitinib] (partner 1 µM)
The method, boiled down: (§1)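 Relative viability divides the nuclei count in treated wells by that in vehicle wells. Lung cancer cell lines were seeded in 1536-well plates, dosed by pin tool the next day, and fixed and stained after 5 days in one step with final 0.05% Triton X-100, 1% formaldehyde and 1 ug/ml Hoechst. Dosing was a single drug or a fixed anchor-drug dose plus five library-drug doses (not always all listed) in √10 steps, and values are medians of duplicate plates imaged at 4×.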

Compound in assay [2]: COc1cc2nc(N3CCCN(C)CC3)nc(NC3CCN(Cc4ccccc4)CC3)c2cc1OC + O=C(c1cc(Cc2n[nH]c(=O)c3ccccc23)ccc1F)N1CCN(C(=O)C2CC2)CC1 [Olaparib] (partner 8 µM)
The method, boiled down:
as §1

Compound in assay [3]: Cc1cc([C@@H](C)Nc2ccccc2C(=O)O)c2nc(N3CCOCC3)cc(=O)n2c1 [AZD6482] + Nc1ncn([C@H]2C[C@H](O)[C@@H](CO)O2)c(=O)n1 [Decitabine] (partner 2 µM)
The method, boiled down:
as §1

Compound in assay [4]: COc1cc2nc(N3CCCN(C)CC3)nc(NC3CCN(Cc4ccccc4)CC3)c2cc1OC + CCNC(=O)c1noc(-c2cc(C(C)C)c(O)cc2O)c1-c1ccc(CN2CCOCC2)cc1 [Luminespib] (partner 0.01 µM)
In short, it runs like this: as §1

The text below walks through data of the supplement of paper PMC10307832.

For the cell line SW 1573, the relative viability in assay [1] (first compound 0.08 µM) is 0.66; in assay [1] (first compound 0.253 µM) it was 0.678; in assay [1] (first compound 0.8 µM), 0.493; in assay [1] (first compound 2.53 µM) it was 0.443; in assay [1] (first compound 8 µM), 0.572; in assay [2] (first compound 0.2 µM), 0.496. Further, the relative viability worked out at 0.473 in assay [2] (first compound 0.6325 µM); 0.487 in assay [2] (first compound 2 µM); 0.125 in assay [2] (first compound 6.325 µM); 0.545 in assay [3] (first compound 0.08 µM); 0.449 in assay [3] (first compound 0.253 µM); 0.434 in assay [3] (first compound 0.8 µM). Besides, the relative viability worked out at 0.332 in assay [3] (first compound 2.53 µM); 0.454 in assay [3] (first compound 8 µM); 0.179 in assay [4] (first compound 0.2 µM); 0.27 in assay [4] (first compound 0.6325 µM); 0.356 in assay [4] (first compound 2 µM); 0.152 in assay [4] (first compound 6.325 µM).
